In ChEMBL document CHEMBL1156672, “Selectivity criterion for pyrazolo[3,4-b]pyrid[az]ine derivatives as GSK-3 inhibitors: CoMFA and molecular docking studies” (Eur J Med Chem, 2008):

Target: Cyclin-dependent kinase 2 (Homo sapiens, UniProt P24941)

IC50: 5 nM
SMILES: O=C(NC1=NNC2=CC=CC21)C1CC1 (stereo unspecified)
